Assay results as given in patent US20240174744A1, “METHODS OF TREATMENT USING PROTEIN BINDERS TO IRHOM2 EPITOPES” (SCIRHOM GMBH, priority 2021, published 2024).

Test system: LPS-induced release of TNFα from PBMCs from healthy donors
Assay: ELISA-based TNFα release assay, PBMCs from healthy donors
Assay type: cell-based
Settings: Homo sapiens, PBMC; recombinant murine antibodies 1 μg/ml; Batimastat 10 μM; LPS 50 ng/ml, 2 hours
Description: In the following study, ELISA-based TNFα release assays were performed to analyze the inhibitory effects of the antibodies of the present disclosure on LPS-induced release of endogenous TNFα from primary human material obtained from healthy donors using peripheral blood mononuclear cells (PBMCs).
In brief, on day 1, Nunc black MaxiSorp® 96-well plates (Thermo Fisher Scientific, USA) were coated overnight with 100 μl per well of mouse anti-human TNFα capture antibody (provided as part of the DuoSet ELISA kit) at 4 μg/ml TBS at 4° C. On day 2, the capture antibody solution was removed and MaxiSorp® plates were blocked with 300 μl per well of TBS, 1% BSA at room temperature for 3 hours. […] Using an infinite M1000 (Tecan Group, Switzerland) microplate reader, the fluorescence of each well was collected at an excitation wavelength of 435 nm and an emission wavelength of 555 nm.

Compound `CNC(=O)[C@H](Cc1ccccc1)NC(=O)[C@H](CC(C)C)[C@H](CSc1cccs1)C(=O)NO` [Batimastat] has an inhibition at 10 µM of 99.6%.
